In one data set the test system is HEK293. Description: Cytotoxicity against […] cells after 72 hrs by Alamar blue assay. The format is cell-based. To be noted: Homo sapiens, HEK293, 72 h.
For data set [1], the system named is Trypanosoma brucei brucei. Kind of data set: Antitrypanosomal activity against Trypanosoma brucei brucei. The data set is classed as functional, organism-based.
A short description of data set [2]: Selectivity index, ratio of IC50 for HEK293 cells to IC50 for Trypanosoma brucei brucei. The data set is classed as toxicity, cell-based. The note with it: human, HEK293 cells versus Trypanosoma brucei brucei; read-out: Selectivity Index.
Another data set concerns HeLa. Description: Cytotoxicity against human HeLa cells after 72 hrs by Alamar blue assay. The format is functional, cell-based. In general terms: Resazurin is reduced to fluorescent resorufin, in cell work by metabolically active cells.
The next data set has as its system A549. Description: Cytotoxicity against human A549 cells after 72 hrs by Alamar blue assay. The data set is classed as functional, cell-based. To be noted: A549, 72 h.
Data set [3] is described as follows: Cytotoxicity against […] cells at 70 uM after 72 hrs by Alamar blue assay. The data set is classed as cell-based. The note with it: human, HEK293 cells; read-out: INH.
In the next data set the test system is MCF7. Description: Cytotoxicity against human MCF7 cells after 72 hrs by Alamar blue assay. The data set is classed as functional, cell-based. To be noted: MCF7, 72 h.
For data set [4], the system named is Trypanosoma brucei brucei. Kind of data set: Antitrypanosomal activity against Trypanosoma brucei brucei at 167 uM. The data set is classed as functional.

As for `COc1ccc(C[C@H](N)C(=O)N[C@H]2[C@@H](O)[C@H](n3cnc4c(N(C)C)ncnc43)O[C@@H]2CO)cc1` [PUROMYCIN], the figures for the IC50 (with HEK293; in data set [1]) were 0.42 µM and 0.037 µM, respectively.
On to `O=C1C=C(CCc2ccccc2)O[C@H](C[C@H]2CC=CC(=O)O2)C1`, for which the IC50 (in general, the concentration needed to halve the response being measured) in the data set with HEK293 came to 20.4 µM; with HeLa, 43 µM; in data set [1], 2.8 µM; with A549, 78 µM. In addition, the selectivity ratio in data set [2] amounted to 7.4.
In data set [1], `N=C(N)c1ccc(OCCCCCOc2ccc(C(=N)N)cc2)cc1` [PENTAMIDINE] showed an IC50 of 0.007 µM. The cytotoxicity at 72 h, 70 µM in data set [3] is 58.3%.
As for `O=C1C=C(/C=C/c2ccccc2)O[C@H](C[C@H]2CC=CC(=O)O2)C1` [OBOLACTONE], the concentration for half-maximal inhibition (IC50) in the data set with HEK293 was determined as 13.2 µM; in the data set on HeLa, 24 µM; in data set [1], 5.3 µM; in the data set with A549 it was 43 µM; in the data set on MCF7 it was 32 µM. Besides, in data set [2], the selectivity ratio is 2.5.
As for `O=c1ccc2cc3ccoc3cc2o1` [PSORALEN], the IC50 with HEK293 is > 167 µM. The inhibition – broadly, the percentage by which the read-out fell short of the control – at 167 µM in data set [4] was determined as 50.3%.
Turning to `N=C(N)c1ccc(/N=N/Nc2ccc(C(=N)N)cc2)cc1` [DIMINAZENE], the IC50 in the data set on HEK293 was > 80 µM; in data set [1], 0.025 µM.

The values above are taken from ChEMBL document CHEMBL1177823, “7',8'-Dihydroobolactone, a typanocidal alpha-pyrone from the rainforest tree Cryptocarya obovata” (Bioorg Med Chem Lett, 2010).
